US11149008B2, “Sulfamide derivatives and preparation method and use thereof” (HitGen Ltd., priority 2015, dated 2021)

What was measured:
HDAC 1 = HDAC 1 (Homo sapiens, UniProt Q13547); assay: Enzyme activity detection of histone deacetylase 1 (fluorogenic substrate deacetylation); format: biochemical; details: 0.28 ng/μL HDAC 1, 10 μM substrate; IC50 class
From the text: (§1) During the deacetylation detection of a substrate, the HDAC inhibition activity of the compound of the present invention was detected.
C: Enzyme Activity Detection of Histone Deacetylase 1
(§2) Acetyl on the substrate was removed by the HDAC 1, so that the substrate was activated, and the developing liquid added subsequently could act on the substrate to release the fluorescent group. The size of the fluorescence signal reflected the activity of the HDAC 1. The IC50 detection method for this enzyme was disclosed in Chuping Xu, Elisabetta Soragni Improved Histone Deacetylase Inhibitors as Therapeutics for the Neurdegenerative Disease Friedreich's Ataxia: A New Synthetic Route. The total reaction system (100 μL/well) contained 0.28 ng/μL of HDAC 1, 10 μM of the substrate and the compound in different concentrations. The fluorescence signal was detected online at Ex/Em=360/460. The inhibition effect of the compound was determined from the obtained data, a concentration response curve was obtained by using the inhibition effect and the concentration of the compound, and the value of IC50 was fitted according to a four-parameter model.
(§3) The activities of the compounds prepared in the embodiments against the histone deacetylases 1, 3 and 6 (i.e., HDAC 1, HDAC 3 and HDAC 6) were detected by the above methods, and the test results were shown in Table 2, where the measurements of IC50 of the compounds were classified according to the following description: […]

HepG2 cells = assay: Cell growth inhibition measurement (CCK-8), HepG2; format: cell-based; details: Homo sapiens, HepG2, 72 h, highest EC50 measured during one or multiple operations, read-out: Inhibition activity against cancer cells, HepG2 (EC50)
From the text: (§4) A HepG2 cell strain and an HCT-116 cell strain were purchased from Shanghai Institutes for Biological Sciences; a DMEM high-sugar culture medium and an MEM culture medium were purchased from Hyclone; fetal calf serum was purchased from Gibco; trypsin was purchased from Invitrogen Shanghai; a CCK-8 kit was purchased from Beyotime Institute of Biotechnology; and, the remaining cell culture mediums and other consumables were purchased from Corning China.
(§5) HepG2 cells and HCT-116 cells in the logarithmic growth phase were digested by trypsin. After the counting of uniform cell suspension, the cell density was adjusted as 1500 cells/well by a culture medium containing 10% serum. The cells were re-inoculated to a 96-well cell culture plate, and cultured to a volume of 200 μL at 37° C. in an incubator containing 5% CO2. The cells could be tested after being cultured for 24 h.
(§6) The cells cultured for 24 h were taken out from the incubator. The culture liquid in the well plate was sucked out, and 200 μL of compound solution prepared in the culture medium containing 10% fetal calf serum was added in each well. Five parallel mediums were provided for each concentration, and a DMSO culture medium was used as negative control. The culture mediums were cultured for 72 h at 37° C. in an incubator containing 5% CO2, and CCK-8 detection was performed.
(§7) A serum-free culture medium and CCK-8 solution were prepared, and CCK-8 working solution was prepared at a ratio of 10:1 (this process should be performed in dark place).
(§8) The cells cultured for 72 h were taken out from the incubator. The culture liquid in the well plate was sucked out, and 120 μL of the CCK-8 working solution was added in each well. A well plate without cells was also added with 120 μL of the CCK-8 working solution to serve as blank control. The well plates were cultured for 1 h at 37° C. in an incubator containing 5% CO2 (this process should be performed in dark place).
(§9) The well plates were taken out from the incubator, 100 μL of solution in each well was sucked out and added in a new 96-well plate, and the absorbance was measured at 450 nm (this process should be performed in dark place).
(§10) where Tx is the absorbance of the CCK-8 after the compound acts for 72 h;
(§11) C is the absorbance of the CCK-8 after the negative control wells are cultured for 72 h; and
(§12) B is the absorbance of the CCK-8 in the blank control wells.
(§13) The test results of the compounds prepared according to the embodiments during the measurement are shown in Table 3, wherein the measured highest EC50 of the compounds during one operation or multiple operations is classified according to the following description: […]

HDAC 6 = molecular target: T1, HDAC 6 (Homo sapiens, UniProt Q9UBN7); assay: Enzyme activity detection of histone deacetylase 6 (fluorogenic substrate deacetylation); format: biochemical; details: 0.35 ng/μL HDAC 6, 20 μM substrate, 30 min at 37° C.; IC50 class
T1 construct: purchased BPS Bioscience #50076
T1 sequence (Q9UBN7 1-1215): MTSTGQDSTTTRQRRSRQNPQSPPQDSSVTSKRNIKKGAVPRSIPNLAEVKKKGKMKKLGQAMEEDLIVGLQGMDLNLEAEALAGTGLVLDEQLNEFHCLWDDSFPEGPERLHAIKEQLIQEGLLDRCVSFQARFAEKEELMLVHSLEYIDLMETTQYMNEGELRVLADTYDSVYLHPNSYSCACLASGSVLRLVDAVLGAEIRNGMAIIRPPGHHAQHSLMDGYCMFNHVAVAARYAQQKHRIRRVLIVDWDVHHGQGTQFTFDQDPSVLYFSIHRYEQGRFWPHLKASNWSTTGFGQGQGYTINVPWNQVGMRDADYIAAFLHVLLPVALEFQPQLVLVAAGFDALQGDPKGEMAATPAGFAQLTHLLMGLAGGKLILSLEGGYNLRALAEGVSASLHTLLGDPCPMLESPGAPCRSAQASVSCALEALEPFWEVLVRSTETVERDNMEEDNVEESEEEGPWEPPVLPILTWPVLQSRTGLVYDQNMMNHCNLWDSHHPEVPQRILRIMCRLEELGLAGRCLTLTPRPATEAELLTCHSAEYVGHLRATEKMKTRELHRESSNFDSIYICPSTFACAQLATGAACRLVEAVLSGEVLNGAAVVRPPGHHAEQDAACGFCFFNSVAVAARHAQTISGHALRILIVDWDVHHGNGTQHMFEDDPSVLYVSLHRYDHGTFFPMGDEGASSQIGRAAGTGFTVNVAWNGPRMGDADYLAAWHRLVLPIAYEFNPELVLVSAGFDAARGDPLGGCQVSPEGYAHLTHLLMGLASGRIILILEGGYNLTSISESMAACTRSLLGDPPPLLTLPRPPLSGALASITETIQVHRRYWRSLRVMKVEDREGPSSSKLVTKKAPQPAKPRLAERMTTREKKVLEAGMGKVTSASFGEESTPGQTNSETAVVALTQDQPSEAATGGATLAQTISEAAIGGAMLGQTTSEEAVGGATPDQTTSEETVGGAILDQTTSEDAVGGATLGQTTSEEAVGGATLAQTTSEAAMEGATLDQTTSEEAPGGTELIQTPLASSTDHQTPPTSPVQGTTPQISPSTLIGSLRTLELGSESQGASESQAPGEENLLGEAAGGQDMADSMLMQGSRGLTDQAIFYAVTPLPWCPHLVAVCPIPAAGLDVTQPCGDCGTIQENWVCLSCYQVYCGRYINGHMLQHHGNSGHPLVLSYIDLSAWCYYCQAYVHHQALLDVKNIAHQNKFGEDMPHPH
From the text: as §1
A: Enzyme Activity Detection of Histone Deacetylase 6 (#50076, BPS Bioscience)
Acetyl on the substrate was removed by the HDAC 6, so that the substrate was activated, and the developing liquid added subsequently could act on the substrate to release the fluorescent group. The size of the fluorescence signal reflected the activity of the HDAC 6. The IC50 detection method for this enzyme was disclosed in Chuping Xu, Elisabetta Soragni Improved Histone Deacetylase Inhibitors as Therapeutics for the Neurdegenerative Disease Friedreich's Ataxia: A New Synthetic Route. The total reaction system (100 μL/well) contained 0.35 ng/μL of HDAC 6, 20 μM of the substrate and the compound in different concentrations. The reaction system was incubated for 30 min at 37° C., and the fluorescence signal was then measured. The inhibition effect of the compound was determined from the obtained data, a concentration response curve was obtained by using the inhibition effect and the concentration of the compound, and the value of IC50 was fitted according to a four-parameter model.
as §3

HCT-116 cells = assay: Cell growth inhibition measurement (CCK-8), HCT-116; format: cell-based; details: Homo sapiens, HCT-116, 72 h, highest EC50 measured during one or multiple operations, read-out: Inhibition activity against cancer cells, HCT-116 (EC50)
From the text: as §4, §5, §6, §7, §8, §9, §10, §11, §12, §13

HDAC 3 = molecular target: T2, HDAC 3 (Homo sapiens, UniProt O15379); assay: Enzyme activity detection of histone deacetylase 3 (fluorogenic substrate deacetylation); format: biochemical; details: 0.16 ng/μL HDAC 3, 10 μM substrate; IC50 class
T2 construct: purchased BPS Bioscience #50003
From the text: as §1
B: Enzyme Activity Detection of Histone Deacetylase 3 (#50003, BPS Bioscience)
as §2, with “3,” for “1,”, “3.” for “1.”, “0.16” for “0.28”
as §3

T2 sequence (O15379 whole entry): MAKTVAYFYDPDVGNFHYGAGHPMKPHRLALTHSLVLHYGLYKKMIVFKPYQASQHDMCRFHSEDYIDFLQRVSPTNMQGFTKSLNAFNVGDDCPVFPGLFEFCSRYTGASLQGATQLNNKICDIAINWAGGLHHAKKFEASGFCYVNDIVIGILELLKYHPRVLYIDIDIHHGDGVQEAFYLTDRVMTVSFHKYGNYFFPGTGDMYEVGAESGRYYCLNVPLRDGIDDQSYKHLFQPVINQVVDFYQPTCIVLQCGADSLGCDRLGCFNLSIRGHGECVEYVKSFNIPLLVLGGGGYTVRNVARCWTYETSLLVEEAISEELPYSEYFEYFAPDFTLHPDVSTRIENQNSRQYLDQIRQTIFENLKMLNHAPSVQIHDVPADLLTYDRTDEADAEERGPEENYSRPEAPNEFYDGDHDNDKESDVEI
T2 sequence (Q9Y618 395-489 partner limits assumed): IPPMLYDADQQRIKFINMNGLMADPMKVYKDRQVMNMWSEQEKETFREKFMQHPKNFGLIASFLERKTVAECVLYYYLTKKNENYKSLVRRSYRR
Chain of HDAC 1 (Q13547 whole entry, species assumed): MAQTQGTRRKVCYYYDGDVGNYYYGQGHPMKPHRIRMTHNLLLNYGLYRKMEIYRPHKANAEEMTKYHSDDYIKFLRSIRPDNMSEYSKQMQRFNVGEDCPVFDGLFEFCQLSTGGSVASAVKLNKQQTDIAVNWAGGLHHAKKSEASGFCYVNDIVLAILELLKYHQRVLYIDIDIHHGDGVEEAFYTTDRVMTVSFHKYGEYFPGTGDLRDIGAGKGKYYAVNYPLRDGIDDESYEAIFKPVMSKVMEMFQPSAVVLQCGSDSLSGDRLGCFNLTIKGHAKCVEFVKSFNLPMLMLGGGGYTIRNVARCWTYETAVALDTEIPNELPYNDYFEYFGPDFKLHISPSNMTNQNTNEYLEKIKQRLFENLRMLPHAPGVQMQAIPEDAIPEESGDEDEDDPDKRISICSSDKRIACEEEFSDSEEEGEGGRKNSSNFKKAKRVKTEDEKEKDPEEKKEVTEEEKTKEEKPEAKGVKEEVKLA

| Compound | IC50 (HDAC 1) [nM] | EC50 (HepG2 cells) [nM] | IC50 (HDAC 6) [nM] | EC50 (HCT-116 cells) [nM] | IC50 (HDAC 3) [nM] |
| --- | --- | --- | --- | --- | --- |
| O=C(NO)C1=CCN(S(=O)(=O)c2ccc(-c3ccc(CN4CCCCC4)cc3)cc2)CC1 [Compound 19, N-hydroxyl-1-((4′-(piperidine-1-ylmethyl)-[1,1′-biphenyl]-4-yl)sulfonyl)-1,2,3,6-tetrahydropyridine-4-formamide] | < 100 | < 100 | < 100 | < 100 | – |
| CN1CCN(c2ccc(-c3ccc(S(=O)(=O)N4CCC=C(C(=O)NO)CC4)cc3)cc2)CC1 [Compound 44, N-hydroxyl-1-((4′-(4-methylpiperazine-1-yl)-[1,1′-biphenyl]-4-yl)sulfonyl)-2,3,6,7-tetrahydro-1H-aza-4-formamide] | 100 to 500 | > 100 | < 100 | – | 100 to 500 |
| O=C(NO)C1=CCN(S(=O)(=O)c2ccc(-c3cnn(C4CCNCC4)c3)cc2)CC1 [Compound 1, N-hydroxyl-1-((4-(1-(piperidine-4-yl)-1H-pyrazol-4-yl)phenyl)sulfonyl)-1,2,3,6-tetrahydropyridine-4-formamide] | – | > 100 | < 100 | – | 100 to 500 |
| O=C(NO)C1=CCN(S(=O)(=O)c2ccc(-c3ccc(O)cc3)cc2)CC1 [Compound 2, N-hydroxyl-1-((4′-hydroxyl-[1,1′-biphenyl]-4-yl)sulfonyl)-1,2,3,6-tetrahydropyridine-4-formamide] | – | < 100 | < 100 | – | 100 to 500 |
